# Measurements from US20210269815A1, “GENETICALLY MODIFIED PLANT AND USES THEREOF” (IST AUSTRIA, priority 2018, published 2021).
# Experiments:
# Type in all cases: in vivo, Arabidopsis
# [1] = test system: SYAC1 promoter; assay: pSYAC1:GUS / pSYAC1:nlsGFP reporter expression in roots
# Method: The syac1-1 (salk_151420C, Col-0, KAN^R) and syac1-2 (salk_151662B, Col-0, KAN^R) T-DNA insertion lines were obtained from the Salk Institute. The syac1-3 (GABI-KAT 760F05, Col-0, SUL^R) and syac1-4 (GABI-KAT 961C03, Col-0, SUL^R) T-DNA insertion lines were obtained from the GABI KAT seed collection. The syac1-5 CRISPR line was prepared in collaboration with the VBCF Protein Technologies Facility (www.vbcf.ac.at) (see below). The genetically modified fluorescent-protein marker lines in Col-0 background have been described elsewhere: mCherry tagged wave line 6, 9, 13, 18, 25, 29, 34, 127, 129, 131, 138 (Geldner et al., 2009, Plant J. 59, 169-178), SYP61:SYP61-CFP (Drakakaki et al., 2012, Cell Res. 22, 413-424). The echidna mutant has been described in (Gendre et al., 2011, PNAS 108, 8048-8053) and yip4a-2 yip4b-1 in (Gendre et al., 2013, The Plant Cell 25, 2633-2646). Seeds of Arabidopsis were plated and grown on square plates with solid half strength Murashige and Skoog (MS) medium (Duchefa) supplemented with 0.5 g L^−1 MES, 10 g L^−1 Sucrose, 1% agar and pH adjusted to 5.9. The plates were incubated at 4° C. for 48 h to synchronize seed germination and then vertically grown under a 16:8 h day/night cycle photoperiod at 21° C. Cytokinin and auxin treatments were performed with the N6-benzyladenine cytokinin derivative (Sigma) and Naphthaleneacetic acid (Sigma), respectively. Short treatments (6 hours) for GUS/GFP expression were performed with 10 μM cytokinin and 1 μM auxin (unless indicated differently). For root growth transient assay 0.1 μM cytokinin and 0.05 μM auxin was used. Estradiol treatment was performed with β-Estradiol (Sigma).
# For promoter analysis of SYAC1, an upstream sequence of 2522 bp was amplified by PCR and introduced into the pDONRP4-P1R entry vector. Then transcriptional lines (pSYAC1:GUS, pSYAC1:nlsGFP) were created: for pSYAC1:GUS, an LR reaction with SYAC1 promoter in pDONORP4-P1R, pEN-L1-S-L2,0 and pK7m24GW,0 vectors was performed. For pSYAC1:nlsGFP line, an LR reaction with SYAC1 promoter in pDONORP4-P1R, pEN-L1-NF-L2,0 and pB7m24GW,0 was performed. […]
# [2] = test system: root tip of wild type control plants; assay: Effect of excess copper on the primary root of seedlings grown on agar; details: 5 days on normal media, then transferred to media containing 50 μM CuSO4
# Method: Plants were grown for 5 days on normal AM+ media and then transferred to media containing 50 μM CuSO4.
# [3] = test system: SYAC1 expression; assay: Genome wide transcriptome profiling of roots exposed to auxin, cytokinin and both hormones; details: 3 hours of treatment, 1 μM auxin, 10 μM cytokinin
# Method: The syac1-1 (salk_151420C, Col-0, KAN^R) and syac1-2 (salk_151662B, Col-0, KAN^R) T-DNA insertion lines were obtained from the Salk Institute. The syac1-3 (GABI-KAT 760F05, Col-0, SUL^R) and syac1-4 (GABI-KAT 961C03, Col-0, SUL^R) T-DNA insertion lines were obtained from the GABI KAT seed collection. The syac1-5 CRISPR line was prepared in collaboration with the VBCF Protein Technologies Facility (www.vbcf.ac.at) (see below). The genetically modified fluorescent-protein marker lines in Col-0 background have been described elsewhere: mCherry tagged wave line 6, 9, 13, 18, 25, 29, 34, 127, 129, 131, 138 (Geldner et al., 2009, Plant J. 59, 169-178), SYP61:SYP61-CFP (Drakakaki et al., 2012, Cell Res. 22, 413-424). The echidna mutant has been described in (Gendre et al., 2011, PNAS 108, 8048-8053) and yip4a-2 yip4b-1 in (Gendre et al., 2013, The Plant Cell 25, 2633-2646). […]
# To search for novel molecular components and mechanisms of auxin-cytokinin cross-talk, genome wide transcriptome profiling of roots exposed to auxin, cytokinin and both hormones simultaneously, was performed. […] This SYAC1 expression profile in roots was further validated by quantitative real-time (RT-qPCR) (FIG. 2A). […]
compound,measurement,setting,value
"NC1(C(=O)O)CC1 [ACC, 1-aminocyclopropane-1-carboxylic acid]",enhancement of pSYAC1:GUS expression,"[1]; roots treated with ACC only or in combination with cytokinin, auxin or both",No enhancement
O=S(=O)([O-])[O-].[Cu+2] [CuSO4],SYAC1 promoter-driven GUS expression in reporter lines,[1]; 50 μM CuSO4 in ½MS plus Agar substrate,able to trigger
same,swelling of cells at the root tip,[2],trigger swelling of cells at the root tip
"O=C(O)Cc1cccc2ccccc12 [auxin, Naphthaleneacetic acid]",SYAC1 expression compared to an untreated control,[3],2.47±0.20
"c1ccc(CNc2ncnc3nc[nH]c23)cc1 [cytokinin, N6-benzyladenine]",SYAC1 expression compared to an untreated control,[3],1.53±0.19
same,"pSYAC1 reporter signal (pSYAC1:GUS, pSYAC1:nlsGFP)","[1]; roots, 6 hours exposure",enhanced reporter signal in the quiescent center (QC) and columella initials (CI)
